Test results published in patent US7626044B2, “Triptolide derivatives and their uses” (priority 2002, dated 2009).

Legend:
[1] = test system: DNFB-induced mouse DTH response; assay: DNFB-induced mouse delayed type hypersensitivity response (DTH); format: in vivo; conditions: Table 8, i.p., Balb/c mice, dosage 1000 (mg/kg)
Method: Female Balb/c mice (age of 6-8 wk) were randomly divided into groups and immunized with 20 μl 0.5% DNFB solution in absolute acetone-olive oil (4:1) on each hind foot on day 0 and 1;
7-9 days after the initial immunization, mice were boosted with 10 μl 0.4% DNFB on both sides of the left ear, whereas the right ear was treated with vehicle alone;
Compounds were administered intraperitoneally (i.p.) or orally (p.o.) to the mice 1 h before DNFB booster immunization and 12 h later.
Ear swelling and other indexes were assessed 24-48 h after booster immunization.
Note: Female ICR mice (age of 6-8 wk) were immunized with 0.7% DNFB solution and boosted with 0.6% DNFB solution.

[2] = test system: anti-SRBC specific antibodies production by B lymphocytes; format: in vivo, mouse; conditions: Table 12, positive control given i.p., ICR mice, dosage 4 mg/kg
lymphocyte = assay: MTT cytotoxic assay; format: cell-based, mouse; conditions: control 0.337
Method: Mice were sacrificed by cervical dislocation, and spleens were collected under sterile conditions then teased through a nylon mesh. Erythrocytes were lysed. Cells were washed and resuspended at 5×10^6/ml in RPMI-1640 media supplemented with 10% FBS.
For one 96 well plate assay, 90 μl of cells, 45 μl of sample and 45 μl of RPMI-1640 media with 10% FBS were added into each well with the final volume 180 μl. The negative control wells (containing 90 μl of RPMI-1640 media with 10% FBS and 90 pt of cells), blank control (180 μl of RPMI-1640 media with 10% FBS) were also performed. Incubate plate for 48 hours at 37° C., 5% CO2 in a humidified incubator. 18 μl of MTT solution (5 mg/ml) was added for 6-7 h.
90 μl of MTT lysis solution was added to each well followed by a further incubation at 37° C. for 6-7 h. And the absorbance was measured at 570 nm using a plate reader.

T lymphocyte = assay: ConA induced T-lymphocyte proliferation ([3H]thymidine); format: cell-based, mouse; conditions: control 125789
Method: (§1) Mice were sacrificed by cervical dislocation, and spleens were collected under sterile conditions then teased through a nylon mesh. Erythrocytes were lysed. Cells were washed and resuspended at 5×10^6/ml in RPMI-1640 media containing 10% FBS. For one 96 well plate assay, 100 pt of cells, 50 μl of sample and 50 μl of ConA/LPS were added into each well with the final volume 200 μl. The control wells were set up with 50 μl of RPMI-1640 media instead of ConA/LPS.
(§2) Plates were incubated for 48 h (ConA) or 60 h (LPS), respectively, at 37° C., 5% CO2 in a humidified incubator. In the last 8 h of incubation, 25 μl (1.9×10^10 Bq) of [^3H]thymidine was added. After plates were incubated for 48 h, the plates (ConA) were stored at −20° C., then after another 12 h, the plates (LPS) were stored at −20° C.
(§3) At the end of incubation, pulsed cells were harvested on a glass filter using a cell harvester ([…]96®, TOMTEC) and allowed to dry. Incorporation of radioactive thymidine was determined by using liquid Scintillation and Luminescence Counters (MicroBeta Trilux®, PerkinElmer).

B lymphocyte = assay: LPS induced B-lymphocyte proliferation ([3H]thymidine); format: cell-based, mouse; conditions: control 87373
Method: as §1, §2, §3

SMILES | Cytotoxicity OD Value (lymphocyte; 10^−6 M) | Cytotoxicity OD Value (lymphocyte; 10^−7 M) | Cytotoxicity OD Value (lymphocyte; 10^−8 M) | Lymphocyte Proliferation (cpm) T cell (T lymphocyte; 10^−6 M) [cpm] | Lymphocyte Proliferation (cpm) T cell (T lymphocyte; 10^−7 M) [cpm] | Lymphocyte Proliferation (cpm) T cell (T lymphocyte; 10^−8 M) [cpm] | Lymphocyte Proliferation (cpm) B cell (B lymphocyte; 10^−6 M) [cpm] | Lymphocyte Proliferation (cpm) B cell (B lymphocyte; 10^−7 M) [cpm] | Lymphocyte Proliferation (cpm) B cell (B lymphocyte; 10^−8 M) [cpm] | further results
O=P1(N(CCCl)CCCl)NCCCO1 (stereo not drawn) [CTX, reference compound] | – | – | – | – | – | – | – | – | – | Body weight after i.p. ([1]; control 21.9): 21.1 g; Body weight before i.p. ([1]; control 22.4): 22.1 g; Ear swelling X ± SD ([1]; control 22.7 ± 2.1): 15.6 ± 8.1 mg; Right ear ([1]; control 26.4): 30.3 mg; Left ear ([1]; control 49.1): 45.9 mg; Spleen ([1]; control 154.0): 141.2 mg; QHS OD value ([2]; control 0.38): 0.12; C3 ([2]; control 7.9): 7.5 μg/10 μl; Body weight ([2]; control 23.4): 22.6 g; Thymus ([2]; control 28.8): 28.2 mg; Spleen ([2]; control 55.7): 50.7 mg/10 g; Total IgG ([2]; control 117): 101 μg/10 μl
CC(C)C12OC1C1OC13C1(C)CCC4=C(COC4=O)C1=CC1OC13C2O (stereo not drawn) [LLDT-18, Δ^5,6-dehydrotriptolide] | 0.039 | 0.295 | 0.367 | 462 | 53513 | 92807 | 833 | 75147 | 79808 | –
CC(C)[C@]12O[C@H]1[C@@H]1O[C@]13[C@]1(O[C@H]1C=C1C4=C(CC[C@@]13C)C(=O)OC4)[C@H]2O [LLDT-19, Δ^5,6-dehydro-14-epitriptolide] | 0.340 | 0.340 | 0.346 | 79418 | 71177 | 76183 | 82989 | 70587 | 69690 | –
CC(C)C12OC1C1OC13C1(OC1C1OC14C1=C(CCC43C)C(=O)OC1)C2O [LLDT-20, (5R, 6S)-5,6-epoxytriptolide] | 0.263 | 0.350 | 0.374 | 25344 | 54771 | 69785 | 63169 | 85145 | 78259 | –
CC(C)[C@]12O[C@H]1[C@@H]1O[C@]13[C@]1(O[C@H]1[C@@H]1O[C@@]14C1=C(CC[C@]34C)C(=O)OC1)[C@H]2O [LLDT-21, (5R, 6S)-5,6-epoxy-14-epitriptolide] | 0.361 | 0.332 | 0.359 | 97217 | 73513 | 83465 | 86610 | 75766 | 76181 | –
CC(C)C12OC1C1OC13C1(OC1C(O)C1(O)C4=C(CCC13C)C(=O)OC4)C2O [LLDT-22, cis-(5R, 6S)-5,6-dihydroxytriptolide] | 0.157 | 0.345 | 0.374 | 2662 | 68787 | 64367 | 16807 | 89706 | 84748 | –
CC(C)C12OC1C1OC13C1(OC1C(O)C1(O)C4=C(CCC13C)C(=O)OC4)C2O [LLDT-23, cis-(5R, 6S)-5,6-dihydroxy-14-epitriptolide] | 0.302 | 0.349 | 0.366 | 55614 | 104791 | 84713 | 99672 | 86481 | 76993 | –
